Results published in PubChem BioAssay (NCI).
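GI50 is the concentration that inhibits growth by half. Definition used: TGI = concentration required for complete inhibition of growth.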

Tests used:
Assay in all cases: DTP human tumour cell line panel, 384-well format
786-0 renal = tested on: 786-0 renal
A498 renal = tested on: A498 renal
A549 NSCLC = tested on: A549 NSCLC
ACHN renal = tested on: ACHN renal
BT-549 breast = tested on: BT-549 breast
CAKI-1 renal = tested on: CAKI-1 renal
CCRF-CEM leukemia = tested on: CCRF-CEM leukemia
COLO 205 colon = tested on: COLO 205 colon
DU-145 prostate = tested on: DU-145 prostate
EKVX NSCLC = tested on: EKVX NSCLC
HCC-2998 colon = tested on: HCC-2998 colon
HCT-116 colon = tested on: HCT-116 colon
HCT-15 colon = tested on: HCT-15 colon
HL-60(TB) leukemia = tested on: HL-60(TB) leukemia
HOP-62 NSCLC = tested on: HOP-62 NSCLC
HOP-92 NSCLC = tested on: HOP-92 NSCLC
HS 578T breast = tested on: HS 578T breast
HT29 colon = tested on: HT29 colon
IGROV1 ovarian = tested on: IGROV1 ovarian
K-562 leukemia = tested on: K-562 leukemia
KM12 colon = tested on: KM12 colon
M14 melanoma = tested on: M14 melanoma
MALME-3M melanoma = tested on: MALME-3M melanoma
MCF7 breast = tested on: MCF7 breast
MDA-MB-231 breast = tested on: MDA-MB-231 breast
MDA-MB-435 melanoma = tested on: MDA-MB-435 melanoma
MDA-MB-468 breast = tested on: MDA-MB-468 breast
MOLT-4 leukemia = tested on: MOLT-4 leukemia
NCI-H226 lung = tested on: NCI-H226 lung
NCI-H23 lung = tested on: NCI-H23 lung
NCI-H322M lung = tested on: NCI-H322M lung
NCI-H460 NSCLC = tested on: NCI-H460 NSCLC
NCI-H522 lung = tested on: NCI-H522 lung
NCI/ADR-RES ovarian = tested on: NCI/ADR-RES ovarian
OVCAR-3 ovarian = tested on: OVCAR-3 ovarian
OVCAR-4 ovarian = tested on: OVCAR-4 ovarian
OVCAR-5 ovarian = tested on: OVCAR-5 ovarian
OVCAR-8 ovarian = tested on: OVCAR-8 ovarian
PC-3 prostate = tested on: PC-3 prostate
RPMI-8226 leukemia = tested on: RPMI-8226 leukemia
RXF 393 renal = tested on: RXF 393 renal
SF-268 CNS = tested on: SF-268 CNS
SF-295 CNS = tested on: SF-295 CNS
SF-539 CNS = tested on: SF-539 CNS
SK-MEL-2 melanoma = tested on: SK-MEL-2 melanoma
SK-MEL-28 melanoma = tested on: SK-MEL-28 melanoma
SK-MEL-5 melanoma = tested on: SK-MEL-5 melanoma
SK-OV-3 ovarian = tested on: SK-OV-3 ovarian
SN12C renal = tested on: SN12C renal
SNB-19 CNS = tested on: SNB-19 CNS
SNB-75 CNS = tested on: SNB-75 CNS
SR leukemia = tested on: SR leukemia
SW-620 colon = tested on: SW-620 colon
T-47D breast = tested on: T-47D breast
TK-10 renal = tested on: TK-10 renal
U251 glioblastoma = tested on: U251 glioblastoma
UACC-257 melanoma = tested on: UACC-257 melanoma
UACC-62 melanoma = tested on: UACC-62 melanoma
UO-31 renal = tested on: UO-31 renal

## C[C@@H]1OC(O)[C@@H](F)[C@H](O)[C@@H]1O (stereo partly drawn)
786-0 renal
  GI50: > 100000 nM
  TGI: > 100000 nM
A498 renal
  GI50: > 100000 nM
  TGI: > 100000 nM
A549 NSCLC
  GI50: > 100000 nM
  TGI: > 100000 nM
ACHN renal
  GI50: > 100000 nM
  TGI: > 100000 nM
BT-549 breast
  GI50: > 100000 nM
  TGI: > 100000 nM
CAKI-1 renal
  GI50: > 100000 nM
  TGI: > 100000 nM
CCRF-CEM leukemia
  GI50: > 100000 nM
  TGI: > 100000 nM
COLO 205 colon
  GI50: > 100000 nM
  TGI: > 100000 nM
DU-145 prostate
  GI50: > 100000 nM
  TGI: > 100000 nM
EKVX NSCLC
  GI50: > 100000 nM
  TGI: > 100000 nM
HCC-2998 colon
  GI50: > 100000 nM
  TGI: > 100000 nM
HCT-116 colon
  GI50: > 100000 nM
  TGI: > 100000 nM
HCT-15 colon
  GI50: > 100000 nM
  TGI: > 100000 nM
HL-60(TB) leukemia
  GI50: > 100000 nM
  TGI: > 100000 nM
HOP-62 NSCLC
  GI50: > 100000 nM
  TGI: > 100000 nM
HOP-92 NSCLC
  GI50: > 100000 nM
  TGI: > 100000 nM
HS 578T breast
  GI50: > 100000 nM
  TGI: > 100000 nM
HT29 colon
  GI50: > 100000 nM
  TGI: > 100000 nM
IGROV1 ovarian
  GI50: > 100000 nM
  TGI: > 100000 nM
K-562 leukemia
  GI50: > 100000 nM
  TGI: > 100000 nM
KM12 colon
  GI50: > 100000 nM
  TGI: > 100000 nM
M14 melanoma
  GI50: > 100000 nM
  TGI: > 100000 nM
MALME-3M melanoma
  GI50: > 100000 nM
  TGI: > 100000 nM
MCF7 breast
  GI50: > 100000 nM
  TGI: > 100000 nM
MDA-MB-231 breast
  GI50: > 100000 nM
  TGI: > 100000 nM
MDA-MB-435 melanoma
  GI50: > 100000 nM
  TGI: > 100000 nM
MDA-MB-468 breast
  GI50: > 100000 nM
  TGI: > 100000 nM
MOLT-4 leukemia
  GI50: > 100000 nM
  TGI: > 100000 nM
NCI-H226 lung
  GI50: > 100000 nM
  TGI: > 100000 nM
NCI-H23 lung
  GI50: > 100000 nM
  TGI: > 100000 nM
NCI-H322M lung
  GI50: > 100000 nM
  TGI: > 100000 nM
NCI-H460 NSCLC
  GI50: > 100000 nM
  TGI: > 100000 nM
NCI-H522 lung
  GI50: > 100000 nM
  TGI: > 100000 nM
NCI/ADR-RES ovarian
  GI50: > 100000 nM
  TGI: > 100000 nM
OVCAR-3 ovarian
  GI50: > 100000 nM
  TGI: > 100000 nM
OVCAR-4 ovarian
  GI50: > 100000 nM
  TGI: > 100000 nM
OVCAR-5 ovarian
  GI50: > 100000 nM
  TGI: > 100000 nM
OVCAR-8 ovarian
  GI50: > 100000 nM
  TGI: > 100000 nM
PC-3 prostate
  GI50: > 100000 nM
  TGI: > 100000 nM
RPMI-8226 leukemia
  GI50: > 100000 nM
  TGI: > 100000 nM
RXF 393 renal
  GI50: > 100000 nM
  TGI: > 100000 nM
SF-268 CNS
  GI50: > 100000 nM
  TGI: > 100000 nM
SF-295 CNS
  GI50: > 100000 nM
  TGI: > 100000 nM
SF-539 CNS
  GI50: > 100000 nM
  TGI: > 100000 nM
SK-MEL-2 melanoma
  GI50: > 100000 nM
  TGI: > 100000 nM
SK-MEL-28 melanoma
  GI50: > 100000 nM
  TGI: > 100000 nM
SK-MEL-5 melanoma
  GI50: > 100000 nM
  TGI: > 100000 nM
SK-OV-3 ovarian
  GI50: > 100000 nM
  TGI: > 100000 nM
SN12C renal
  GI50: > 100000 nM
  TGI: > 100000 nM
SNB-19 CNS
  GI50: > 100000 nM
  TGI: > 100000 nM
SNB-75 CNS
  GI50: > 100000 nM
  TGI: > 100000 nM
SR leukemia
  GI50: > 100000 nM
  TGI: > 100000 nM
SW-620 colon
  GI50: > 100000 nM
  TGI: > 100000 nM
T-47D breast
  GI50: > 100000 nM
  TGI: > 100000 nM
TK-10 renal
  GI50: > 100000 nM
  TGI: > 100000 nM
U251 glioblastoma
  GI50: > 100000 nM
  TGI: > 100000 nM
UACC-257 melanoma
  GI50: > 100000 nM
  TGI: > 100000 nM
UACC-62 melanoma
  GI50: > 100000 nM
  TGI: > 100000 nM

## CC[C@@H]1C(=O)N(C)c2cnc(Nc3ccc(C(=O)NC4CCN(C)CC4)cc3OC)nc2N1C1CCCC1
786-0 renal
  GI50: < 10 nM
  TGI: 149 nM
A498 renal
  GI50: < 10 nM
  TGI: 814 nM
A549 NSCLC
  GI50: < 10 nM
  TGI: 121 nM
ACHN renal
  GI50: 66.1 nM
  TGI: 1560 nM
BT-549 breast
  GI50: < 10 nM
  TGI: < 10 nM
CAKI-1 renal
  GI50: < 10 nM
  TGI: 1270 nM
CCRF-CEM leukemia
  GI50: < 10 nM
  TGI: < 10 nM
COLO 205 colon
  GI50: < 10 nM
  TGI: < 10 nM
DU-145 prostate
  GI50: < 10 nM
  TGI: < 10 nM
EKVX NSCLC
  GI50: < 10 nM
  TGI: 62.1 nM
HCC-2998 colon
  GI50: < 10 nM
  TGI: < 10 nM
HCT-116 colon
  GI50: < 10 nM
  TGI: 135 nM
HL-60(TB) leukemia
  GI50: < 10 nM
  TGI: < 10 nM
HOP-92 NSCLC
  GI50: < 10 nM
  TGI: 1050 nM
HS 578T breast
  GI50: < 10 nM
  TGI: < 10 nM
HT29 colon
  GI50: < 10 nM
  TGI: 1090 nM
IGROV1 ovarian
  GI50: < 10 nM
  TGI: 224 nM
K-562 leukemia
  GI50: < 10 nM
  TGI: < 10 nM
KM12 colon
  GI50: < 10 nM
  TGI: < 10 nM
MCF7 breast
  GI50: < 10 nM
  TGI: 904 nM
MDA-MB-231 breast
  GI50: < 10 nM
  TGI: 1350 nM
MDA-MB-435 melanoma
  GI50: < 10 nM
  TGI: < 10 nM
MDA-MB-468 breast
  GI50: < 10 nM
  TGI: < 10 nM
MOLT-4 leukemia
  GI50: < 10 nM
  TGI: < 10 nM
NCI-H226 lung
  GI50: 224 nM
  TGI: 1920 nM
NCI-H23 lung
  GI50: < 10 nM
  TGI: < 10 nM
NCI-H322M lung
  GI50: < 10 nM
  TGI: 1400 nM
NCI-H460 NSCLC
  GI50: < 10 nM
  TGI: < 10 nM
NCI-H522 lung
  GI50: < 10 nM
  TGI: < 10 nM
NCI/ADR-RES ovarian
  GI50: 196 nM
  TGI: 591 nM
OVCAR-3 ovarian
  GI50: < 10 nM
  TGI: < 10 nM
OVCAR-4 ovarian
  GI50: 10.3 nM
  TGI: 129 nM
OVCAR-5 ovarian
  GI50: < 10 nM
  TGI: 226 nM
OVCAR-8 ovarian
  GI50: < 10 nM
  TGI: < 10 nM
PC-3 prostate
  GI50: < 10 nM
  TGI: 2460 nM
RPMI-8226 leukemia
  GI50: < 10 nM
  TGI: < 10 nM
RXF 393 renal
  GI50: < 10 nM
  TGI: < 10 nM
SF-268 CNS
  GI50: < 10 nM
  TGI: 414 nM
SK-MEL-2 melanoma
  GI50: < 10 nM
  TGI: < 10 nM
SK-MEL-28 melanoma
  GI50: < 10 nM
  TGI: 1920 nM
SK-MEL-5 melanoma
  GI50: < 10 nM
  TGI: < 10 nM
SK-OV-3 ovarian
  GI50: < 10 nM
  TGI: 107 nM
SN12C renal
  GI50: < 10 nM
  TGI: 880 nM
SNB-19 CNS
  GI50: < 10 nM
  TGI: 269 nM
SR leukemia
  GI50: < 10 nM
  TGI: < 10 nM
SW-620 colon
  GI50: < 10 nM
  TGI: < 10 nM
T-47D breast
  GI50: < 10 nM
  TGI: 166 nM
TK-10 renal
  GI50: < 10 nM
  TGI: 235 nM
U251 glioblastoma
  GI50: < 10 nM
  TGI: 85.6 nM
UACC-257 melanoma
  GI50: < 10 nM
  TGI: 1700 nM
UO-31 renal
  GI50: 77.1 nM
  TGI: 1480 nM
